{
  "source": "ChEMBL document CHEMBL1671622",
  "about": "“Novel mutation in 23S rRNA that confers low-level resistance to clarithromycin in Helicobacter pylori” (2008)",
  "type_in_all_cases": "functional",
  "key": {"[1]": {"test_system": "Helicobacter pylori", "assay": "Antimicrobial activity against Helicobacter pylori S1900"}, "[2]": {"test_system": "Helicobacter pylori", "assay": "Antimicrobial activity against Helicobacter pylori TS1776"}, "[3]": {"test_system": "Helicobacter pylori", "assay": "Antimicrobial activity against Helicobacter pylori TF1"}, "[4]": {"test_system": "Helicobacter pylori", "assay": "Antimicrobial activity against Helicobacter pylori TF2"}, "[5]": {"test_system": "Helicobacter pylori", "assay": "Antimicrobial activity against Helicobacter pylori TF3"}, "[6]": {"test_system": "Helicobacter pylori", "assay": "Antimicrobial activity against compound-resistant Helicobacter pylori harboring 23S rRNA mutant gene"}, "[7]": {"test_system": "Helicobacter pylori", "assay": "Antimicrobial activity against clarithromycin-susceptible Helicobacter pylori ATCC 700392 transformant harboring 23S rRNA of Helicobacter pylori TS1900"}, "[8]": {"test_system": "Helicobacter pylori", "assay": "Antimicrobial activity against Helicobacter pylori TF4"}, "[9]": {"test_system": "Helicobacter pylori", "assay": "Antimicrobial activity against Helicobacter pylori TS1900"}, "[10]": {"test_system": "Helicobacter pylori", "assay": "Antimicrobial activity against Helicobacter pylori"}},
  "data": [
    {"smiles": "CC[C@H]1OC(=O)[C@H](C)[C@@H](O[C@H]2C[C@@](C)(OC)[C@@H](O)[C@H](C)O2)[C@H](C)[C@@H](O[C@@H]2O[C@H](C)C[C@H](N(C)C)[C@H]2O)[C@](C)(OC)C[C@@H](C)C(=O)[C@H](C)[C@@H](O)[C@]1(C)O", "note": "[CLARITHROMYCIN]", "values": [
      {"measurement": "MIC", "setting": "[1]", "result": 1, "unit": "mg/L"},
      {"measurement": "MIC", "setting": "[2]", "result": 0.5, "unit": "mg/L"},
      {"measurement": "MIC", "setting": "[3]", "result": 0.5, "unit": "mg/L"},
      {"measurement": "MIC", "setting": "[4]", "result": 0.25, "unit": "mg/L"},
      {"measurement": "MIC", "setting": "[5]", "result": 1, "unit": "mg/L"},
      {"measurement": "MIC", "setting": "[6]", "result": 2, "unit": "mg/L"},
      {"measurement": "MIC", "setting": "[7]", "result": "≤ 0.008", "unit": "mg/L"},
      {"measurement": "MIC", "setting": "[8]", "result": 1, "unit": "mg/L"},
      {"measurement": "MIC", "setting": "[9]", "result": 1, "unit": "mg/L"},
      {"measurement": "MIC", "setting": "[10]", "result": "≥ 0.125", "unit": "mg/L"}
    ]}
  ]
}
